Values after ≈ are worked out from the molar mass of the structure shown.
Columns and labels:
Format in all cases: functional
Moraxella catarrhalis = assay: Antibacterial activity against Moraxella catarrhalis ATCC 43617 by standard serial agar dilution method
Staphylococcus aureus = assay: Antibacterial activity against Staphylococcus aureus Smith by standard serial agar dilution method
Pseudomonas aeruginosa [1] = assay: Antibacterial activity against Pseudomonas aeruginosa SR-5393 by standard serial agar dilution method
Escherichia coli [2] = assay: Antibacterial activity against Toho 2 producing Escherichia coli by standard serial agar dilution method
Haemophilus influenzae [3] = assay: Antibacterial activity against Haemophilus influenzae ATCC 49766 by standard serial agar dilution method
Pseudomonas aeruginosa [4] = assay: Antibacterial activity against imipenem-resistant Pseudomonas aeruginosa SR-6554 by standard serial agar dilution method
Escherichia coli [5] = assay: Antibacterial activity against Escherichia coli SR-21003 by standard serial agar dilution method
Streptococcus pneumoniae = assay: Antibacterial activity against penicillin-resistant Streptococcus pneumoniae SR-16675 by standard serial agar dilution method
Pseudomonas aeruginosa [6] = assay: Antibacterial activity against AmpC hyperproducing Pseudomonas aeruginosa SR24-12 by standard serial agar dilution method
Haemophilus influenzae [7] = assay: Antibacterial activity against beta-lactamase negative ampicillin-resistant Haemophilus influenzae SR-11435 by standard serial agar dilution method
Enterobacter cloacae [8] = assay: Antibacterial activity against Enterobacter cloacae ATCC 13047 by standard serial agar dilution method
Enterobacter cloacae [9] = assay: Antibacterial activity against AmpC producing Enterobacter cloacae SR-4321 by standard serial agar dilution method
Pseudomonas aeruginosa [10] = assay: Antibacterial activity against Pseudomonas aeruginosa SR24 by standard serial agar dilution method

For CNCCn1ccc2c1ccc[n+]2CC1=C(C(=O)[O-])N2C(=O)[C@@H](NC(=O)/C(=N\O[C@@H](C)C(=O)O)c3nc(N)sc3Cl)[C@H]2SC1, the MIC (Moraxella catarrhalis) was 0.032 mg/L (≈ 0.0483 µM), the MIC (Staphylococcus aureus) was 2 mg/L (≈ 3.02 µM) and the MIC (Pseudomonas aeruginosa [1]) was 2 mg/L (≈ 3.02 µM). For the same compound, the MIC (Escherichia coli [2]) was 2 mg/L (≈ 3.02 µM), the MIC (Haemophilus influenzae [3]) was 0.032 mg/L (≈ 0.0483 µM) and the MIC (Pseudomonas aeruginosa [4]) was 8 mg/L (≈ 12.1 µM). The MIC (Escherichia coli [5]) was 0.5 mg/L (≈ 0.754 µM), the MIC (Streptococcus pneumoniae) was 4 mg/L (≈ 6.03 µM) and the MIC (Pseudomonas aeruginosa [6]) was 4 mg/L (≈ 6.03 µM). The MIC (Haemophilus influenzae [7]) was 0.125 mg/L (≈ 0.188 µM), the MIC (Enterobacter cloacae [8]) was 0.5 mg/L (≈ 0.754 µM) and the MIC (Enterobacter cloacae [9]) was 2 mg/L (≈ 3.02 µM). It also gave an MIC (Pseudomonas aeruginosa [10]) of 1 mg/L (≈ 1.51 µM).

For C[C@H](O/N=C(\C(=O)N[C@@H]1C(=O)N2C(C(=O)[O-])=C(C[n+]3cccc4c3nc(N)n4[C@H]3CCNC3)CS[C@H]12)c1nc(N)sc1Cl)C(=O)O, the MIC (Moraxella catarrhalis) was 0.016 mg/L (≈ 0.0231 µM), the MIC (Staphylococcus aureus) was 4 mg/L (≈ 5.79 µM) and the MIC (Pseudomonas aeruginosa [1]) was 2 mg/L (≈ 2.89 µM). It also gave an MIC (Escherichia coli [2]) of 2 mg/L (≈ 2.89 µM), an MIC (Haemophilus influenzae [3]) of 0.032 mg/L (≈ 0.0463 µM) and an MIC (Pseudomonas aeruginosa [4]) of 8 mg/L (≈ 11.6 µM). For the same compound, the MIC (Escherichia coli [5]) was 0.25 mg/L (≈ 0.362 µM), the MIC (Streptococcus pneumoniae) was 2 mg/L (≈ 2.89 µM) and the MIC (Pseudomonas aeruginosa [6]) was 2 mg/L (≈ 2.89 µM). The MIC (Haemophilus influenzae [7]) was 0.125 mg/L (≈ 0.181 µM), the MIC (Enterobacter cloacae [8]) was 0.5 mg/L (≈ 0.723 µM) and the MIC (Enterobacter cloacae [9]) was 2 mg/L (≈ 2.89 µM). For the same compound, the MIC (Pseudomonas aeruginosa [10]) was 0.5 mg/L (≈ 0.723 µM).

With C[C@H](O/N=C(\C(=O)N[C@@H]1C(=O)N2C(C(=O)[O-])=C(C[n+]3cccc4c3ccn4C)CS[C@H]12)c1nc(N)sc1Cl)C(=O)O the MIC (Moraxella catarrhalis) was 0.016 mg/L (≈ 0.0258 µM), the MIC (Staphylococcus aureus) was 1 mg/L (≈ 1.61 µM) and the MIC (Pseudomonas aeruginosa [1]) was 2 mg/L (≈ 3.23 µM). It also gave an MIC (Escherichia coli [2]) of 1 mg/L (≈ 1.61 µM), an MIC (Haemophilus influenzae [3]) of 0.016 mg/L (≈ 0.0258 µM) and an MIC (Pseudomonas aeruginosa [4]) of 16 mg/L (≈ 25.8 µM). It also gave an MIC (Escherichia coli [5]) of 0.125 mg/L (≈ 0.202 µM), an MIC (Streptococcus pneumoniae) of 2 mg/L (≈ 3.23 µM) and an MIC (Pseudomonas aeruginosa [6]) of 4 mg/L (≈ 6.45 µM). It also gave an MIC (Haemophilus influenzae [7]) of 0.032 mg/L (≈ 0.0516 µM), an MIC (Enterobacter cloacae [8]) of 0.25 mg/L (≈ 0.403 µM) and an MIC (Enterobacter cloacae [9]) of 1 mg/L (≈ 1.61 µM). It also gave an MIC (Pseudomonas aeruginosa [10]) of 0.5 mg/L (≈ 0.806 µM).

For CNCCCn1c(N)cc2c1ccc[n+]2CC1=C(C(=O)[O-])N2C(=O)[C@@H](NC(=O)/C(=N\O[C@@H](C)C(=O)O)c3nc(N)sc3Cl)[C@H]2SC1, the MIC (Moraxella catarrhalis) was 0.016 mg/L (≈ 0.0231 µM), the MIC (Staphylococcus aureus) was 1 mg/L (≈ 1.44 µM) and the MIC (Pseudomonas aeruginosa [1]) was 2 mg/L (≈ 2.89 µM). It also gave an MIC (Escherichia coli [2]) of 2 mg/L (≈ 2.89 µM), an MIC (Haemophilus influenzae [3]) of 0.016 mg/L (≈ 0.0231 µM) and an MIC (Pseudomonas aeruginosa [4]) of 16 mg/L (≈ 23.1 µM). For the same compound, the MIC (Escherichia coli [5]) was 0.25 mg/L (≈ 0.361 µM), the MIC (Streptococcus pneumoniae) was 4 mg/L (≈ 5.78 µM) and the MIC (Pseudomonas aeruginosa [6]) was 2 mg/L (≈ 2.89 µM). It also gave an MIC (Haemophilus influenzae [7]) of 0.063 mg/L (≈ 0.091 µM), an MIC (Enterobacter cloacae [8]) of 0.5 mg/L (≈ 0.722 µM) and an MIC (Enterobacter cloacae [9]) of 2 mg/L (≈ 2.89 µM). The MIC (Pseudomonas aeruginosa [10]) was 0.5 mg/L (≈ 0.722 µM).

Compound C[C@H](O/N=C(\C(=O)N[C@@H]1C(=O)N2C(C(=O)[O-])=C(C[n+]3cccc4c3ccn4CCNS(N)(=O)=O)CS[C@H]12)c1nc(N)sc1Cl)C(=O)O has an MIC (Moraxella catarrhalis) of 0.016 mg/L (≈ 0.022 µM), an MIC (Staphylococcus aureus) of 2 mg/L (≈ 2.75 µM) and an MIC (Pseudomonas aeruginosa [1]) of 4 mg/L (≈ 5.49 µM). For the same compound, the MIC (Escherichia coli [2]) was 2 mg/L (≈ 2.75 µM), the MIC (Haemophilus influenzae [3]) was 0.032 mg/L (≈ 0.0439 µM) and the MIC (Pseudomonas aeruginosa [4]) was 8 mg/L (≈ 11 µM). It also gave an MIC (Escherichia coli [5]) of 0.25 mg/L (≈ 0.343 µM), an MIC (Streptococcus pneumoniae) of 2 mg/L (≈ 2.75 µM) and an MIC (Pseudomonas aeruginosa [6]) of 4 mg/L (≈ 5.49 µM). The MIC (Haemophilus influenzae [7]) was 0.063 mg/L (≈ 0.0865 µM), the MIC (Enterobacter cloacae [8]) was 0.5 mg/L (≈ 0.687 µM) and the MIC (Enterobacter cloacae [9]) was 4 mg/L (≈ 5.49 µM). It also gave an MIC (Pseudomonas aeruginosa [10]) of 1 mg/L (≈ 1.37 µM).

In the case of COC(=O)NCCn1ccc2c1ccc[n+]2CC1=C(C(=O)[O-])N2C(=O)[C@@H](NC(=O)/C(=N\O[C@@H](C)C(=O)O)c3nc(N)sc3Cl)[C@H]2SC1, the MIC (Moraxella catarrhalis) is reported as 0.032 mg/L (≈ 0.0453 µM), the MIC (Staphylococcus aureus) is reported as 4 mg/L (≈ 5.66 µM) and the MIC (Pseudomonas aeruginosa [1]) is reported as 8 mg/L (≈ 11.3 µM). For the same compound, the MIC (Escherichia coli [2]) was 4 mg/L (≈ 5.66 µM), the MIC (Haemophilus influenzae [3]) was 0.032 mg/L (≈ 0.0453 µM) and the MIC (Pseudomonas aeruginosa [4]) was 16 mg/L (≈ 22.6 µM). The MIC (Escherichia coli [5]) was 0.5 mg/L (≈ 0.707 µM), the MIC (Streptococcus pneumoniae) was 4 mg/L (≈ 5.66 µM) and the MIC (Pseudomonas aeruginosa [6]) was 8 mg/L (≈ 11.3 µM). It also gave an MIC (Haemophilus influenzae [7]) of 0.063 mg/L (≈ 0.0891 µM), an MIC (Enterobacter cloacae [8]) of 1 mg/L (≈ 1.41 µM) and an MIC (Enterobacter cloacae [9]) of 4 mg/L (≈ 5.66 µM). For the same compound, the MIC (Pseudomonas aeruginosa [10]) was 2 mg/L (≈ 2.83 µM).

With C[C@H](O/N=C(\C(=O)N[C@@H]1C(=O)N2C(C(=O)[O-])=C(C[n+]3cccc4c3ccn4CCOC(N)=O)CS[C@H]12)c1nc(N)sc1Cl)C(=O)O the MIC (Moraxella catarrhalis) was 0.032 mg/L (≈ 0.0462 µM), the MIC (Staphylococcus aureus) was 2 mg/L (≈ 2.89 µM) and the MIC (Pseudomonas aeruginosa [1]) was 2 mg/L (≈ 2.89 µM). It also gave an MIC (Escherichia coli [2]) of 2 mg/L (≈ 2.89 µM), an MIC (Haemophilus influenzae [3]) of 0.032 mg/L (≈ 0.0462 µM) and an MIC (Pseudomonas aeruginosa [4]) of 8 mg/L (≈ 11.5 µM). It also gave an MIC (Escherichia coli [5]) of 0.25 mg/L (≈ 0.361 µM), an MIC (Streptococcus pneumoniae) of 2 mg/L (≈ 2.89 µM) and an MIC (Pseudomonas aeruginosa [6]) of 4 mg/L (≈ 5.77 µM). The MIC (Haemophilus influenzae [7]) was 0.063 mg/L (≈ 0.0909 µM), the MIC (Enterobacter cloacae [8]) was 0.25 mg/L (≈ 0.361 µM) and the MIC (Enterobacter cloacae [9]) was 2 mg/L (≈ 2.89 µM). It also gave an MIC (Pseudomonas aeruginosa [10]) of 0.5 mg/L (≈ 0.721 µM).

For CNCCn1ccc2c[n+](CC3=C(C(=O)[O-])N4C(=O)[C@@H](NC(=O)/C(=N\O[C@@H](C)C(=O)O)c5nc(N)sc5Cl)[C@H]4SC3)ccc21, the MIC (Moraxella catarrhalis) was 0.032 mg/L (≈ 0.0483 µM), the MIC (Staphylococcus aureus) was 4 mg/L (≈ 6.03 µM) and the MIC (Pseudomonas aeruginosa [1]) was 2 mg/L (≈ 3.02 µM). The MIC (Escherichia coli [2]) was 2 mg/L (≈ 3.02 µM), the MIC (Haemophilus influenzae [3]) was 0.032 mg/L (≈ 0.0483 µM) and the MIC (Pseudomonas aeruginosa [4]) was 8 mg/L (≈ 12.1 µM). It also gave an MIC (Escherichia coli [5]) of 0.25 mg/L (≈ 0.377 µM), an MIC (Streptococcus pneumoniae) of 4 mg/L (≈ 6.03 µM) and an MIC (Pseudomonas aeruginosa [6]) of 4 mg/L (≈ 6.03 µM). It also gave an MIC (Haemophilus influenzae [7]) of 0.125 mg/L (≈ 0.188 µM), an MIC (Enterobacter cloacae [8]) of 0.5 mg/L (≈ 0.754 µM) and an MIC (Enterobacter cloacae [9]) of 8 mg/L (≈ 12.1 µM). It also gave an MIC (Pseudomonas aeruginosa [10]) of 1 mg/L (≈ 1.51 µM).

With CNCCn1c(N)nc2c[n+](CC3=C(C(=O)[O-])N4C(=O)[C@@H](NC(=O)/C(=N\O[C@@H](C)C(=O)O)c5nc(N)sc5Cl)[C@H]4SC3)ccc21 the MIC (Moraxella catarrhalis) was 0.032 mg/L (≈ 0.0471 µM), the MIC (Staphylococcus aureus) was 16 mg/L (≈ 23.6 µM) and the MIC (Pseudomonas aeruginosa [1]) was 2 mg/L (≈ 2.94 µM). It also gave an MIC (Escherichia coli [2]) of 1 mg/L (≈ 1.47 µM), an MIC (Haemophilus influenzae [3]) of 0.032 mg/L (≈ 0.0471 µM) and an MIC (Pseudomonas aeruginosa [4]) of 8 mg/L (≈ 11.8 µM). For the same compound, the MIC (Escherichia coli [5]) was 0.25 mg/L (≈ 0.368 µM), the MIC (Streptococcus pneumoniae) was 4 mg/L (≈ 5.89 µM) and the MIC (Pseudomonas aeruginosa [6]) was 4 mg/L (≈ 5.89 µM). For the same compound, the MIC (Haemophilus influenzae [7]) was 0.125 mg/L (≈ 0.184 µM), the MIC (Enterobacter cloacae [8]) was 0.5 mg/L (≈ 0.736 µM) and the MIC (Enterobacter cloacae [9]) was 4 mg/L (≈ 5.89 µM). For the same compound, the MIC (Pseudomonas aeruginosa [10]) was 1 mg/L (≈ 1.47 µM).

CNCCn1nnc2c1ccc[n+]2CC1=C(C(=O)[O-])N2C(=O)[C@@H](NC(=O)/C(=N\O[C@@H](C)C(=O)O)c3nc(N)sc3Cl)[C@H]2SC1 gave an MIC (Moraxella catarrhalis) of 0.032 mg/L (≈ 0.0481 µM), an MIC (Staphylococcus aureus) of 4 mg/L (≈ 6.01 µM) and an MIC (Pseudomonas aeruginosa [1]) of 8 mg/L (≈ 12 µM). It also gave an MIC (Escherichia coli [2]) of 2 mg/L (≈ 3.01 µM), an MIC (Haemophilus influenzae [3]) of 0.125 mg/L (≈ 0.188 µM) and an MIC (Pseudomonas aeruginosa [4]) of 64 mg/L (≈ 96.2 µM). For the same compound, the MIC (Escherichia coli [5]) was 0.25 mg/L (≈ 0.376 µM), the MIC (Streptococcus pneumoniae) was 2 mg/L (≈ 3.01 µM) and the MIC (Pseudomonas aeruginosa [6]) was 64 mg/L (≈ 96.2 µM). The MIC (Haemophilus influenzae [7]) was 0.5 mg/L (≈ 0.752 µM), the MIC (Enterobacter cloacae [8]) was 0.5 mg/L (≈ 0.752 µM) and the MIC (Enterobacter cloacae [9]) was 8 mg/L (≈ 12 µM). The MIC (Pseudomonas aeruginosa [10]) was 2 mg/L (≈ 3.01 µM).
